According to the NIST ThermoML archive (doi:10.1021/je301283e):
± gives the expanded uncertainty stated by the source.

Conditions: Liquid, Drop volume

CCCCCCC [heptane] + O=C=O
interfacial tension [mN/m]
Conditions	313.15 K	333.15 K	353.15 K	373.15 K	393.15 K
340 kPa	16.27 ± 0.25	14.24 ± 0.2	12.36 ± 0.16	11 ± 0.14	9.62 ± 0.12
690 kPa	15.56 ± 0.25	13.68 ± 0.19	11.92 ± 0.16	10.64 ± 0.14	9.29 ± 0.12
1030 kPa	14.88 ± 0.25	13.1 ± 0.19	11.46 ± 0.15	10.29 ± 0.14	8.99 ± 0.12
1380 kPa	14.23 ± 0.25	12.54 ± 0.19	10.99 ± 0.15	9.87 ± 0.13	8.73 ± 0.12
1720 kPa	13.42 ± 0.24	12 ± 0.19	10.6 ± 0.15	9.54 ± 0.13	8.45 ± 0.11
2070 kPa	12.71 ± 0.24	11.38 ± 0.19	10.13 ± 0.15	9.27 ± 0.13	8.23 ± 0.11
2410 kPa	12.05 ± 0.24	10.8 ± 0.19	9.78 ± 0.15	8.84 ± 0.13	7.93 ± 0.11
2760 kPa	11.17 ± 0.24	10.2 ± 0.18	9.24 ± 0.15	8.45 ± 0.13	7.63 ± 0.11
3100 kPa	10.54 ± 0.24	9.62 ± 0.18	8.71 ± 0.15	8.1 ± 0.13	7.32 ± 0.11
3450 kPa	9.76 ± 0.24	8.92 ± 0.18	8.19 ± 0.14	7.67 ± 0.13	7.1 ± 0.11
3800 kPa	9.04 ± 0.24	8.32 ± 0.18	7.86 ± 0.14	7.35 ± 0.13	6.84 ± 0.11
4140 kPa	8.36 ± 0.23	7.76 ± 0.18	7.34 ± 0.14	7 ± 0.13	6.61 ± 0.11
4480 kPa	7.47 ± 0.23	7.23 ± 0.18	6.95 ± 0.14	6.68 ± 0.12	6.25 ± 0.11
4830 kPa	6.74 ± 0.23	6.66 ± 0.18	6.5 ± 0.14	6.35 ± 0.12	6 ± 0.11
5170 kPa	5.87 ± 0.23	6.1 ± 0.18	6.11 ± 0.14	5.95 ± 0.12	5.74 ± 0.11
5510 kPa	5.1 ± 0.23	5.58 ± 0.17	5.83 ± 0.14	5.68 ± 0.12	5.44 ± 0.1
5860 kPa	4.23 ± 0.23	5.11 ± 0.17	5.46 ± 0.14	5.41 ± 0.12	5.24 ± 0.1
6200 kPa	3.59 ± 0.23	4.61 ± 0.17	4.95 ± 0.14	5.08 ± 0.12	4.96 ± 0.1
6550 kPa	3.07 ± 0.23	4.04 ± 0.17	4.41 ± 0.14	4.69 ± 0.12	4.68 ± 0.1
6890 kPa	2.39 ± 0.23	3.52 ± 0.17	4.01 ± 0.13	4.38 ± 0.12	4.37 ± 0.1
7240 kPa	–	3.02 ± 0.17	3.61 ± 0.13	3.94 ± 0.12	4.1 ± 0.1
7580 kPa	–	2.4 ± 0.17	3.22 ± 0.13	3.67 ± 0.12	3.81 ± 0.1

CCCCCCCCCCCCCCCC [hexadecane] + O=C=O
interfacial tension [mN/m]
Conditions	313.15 K	333.15 K	353.15 K	373.15 K	393.15 K
340 kPa	22.39 ± 0.27	20.59 ± 0.23	19.15 ± 0.19	17.84 ± 0.18	16.46 ± 0.15
690 kPa	21.67 ± 0.27	20.1 ± 0.23	18.65 ± 0.19	17.27 ± 0.17	16.12 ± 0.14
1030 kPa	20.89 ± 0.26	19.32 ± 0.23	18.15 ± 0.19	16.85 ± 0.17	15.79 ± 0.14
1380 kPa	20.29 ± 0.26	18.89 ± 0.22	17.69 ± 0.19	16.47 ± 0.17	15.54 ± 0.14
1720 kPa	19.42 ± 0.26	18.21 ± 0.22	17.21 ± 0.19	15.99 ± 0.17	15.11 ± 0.14
2070 kPa	18.39 ± 0.26	17.8 ± 0.22	16.74 ± 0.19	15.67 ± 0.17	14.81 ± 0.14
2410 kPa	17.81 ± 0.25	17.01 ± 0.22	16.21 ± 0.18	15.29 ± 0.17	14.49 ± 0.14
2760 kPa	17.21 ± 0.25	16.38 ± 0.22	15.71 ± 0.18	14.94 ± 0.17	14.18 ± 0.14
3100 kPa	16.29 ± 0.25	15.94 ± 0.22	15.31 ± 0.18	14.48 ± 0.16	13.77 ± 0.13
3450 kPa	15.49 ± 0.25	15.36 ± 0.21	14.82 ± 0.18	14.21 ± 0.16	13.52 ± 0.13
3800 kPa	14.85 ± 0.25	14.8 ± 0.21	14.37 ± 0.18	13.89 ± 0.16	13.2 ± 0.13
4140 kPa	13.94 ± 0.25	14.23 ± 0.21	13.88 ± 0.18	13.49 ± 0.16	12.84 ± 0.13
4480 kPa	13.36 ± 0.24	13.77 ± 0.21	13.31 ± 0.18	13 ± 0.16	12.59 ± 0.13
4830 kPa	12.38 ± 0.24	12.89 ± 0.21	12.89 ± 0.17	12.58 ± 0.16	12.3 ± 0.13
5170 kPa	11.9 ± 0.24	12.49 ± 0.21	12.44 ± 0.17	12.15 ± 0.16	12.06 ± 0.13
5510 kPa	11.18 ± 0.24	11.68 ± 0.21	11.81 ± 0.17	11.89 ± 0.16	11.63 ± 0.13
5860 kPa	10.46 ± 0.24	11.11 ± 0.2	11.48 ± 0.17	11.47 ± 0.15	11.41 ± 0.13
6200 kPa	9.57 ± 0.24	10.36 ± 0.2	11.15 ± 0.17	11.11 ± 0.15	11.18 ± 0.12
6550 kPa	8.63 ± 0.24	9.68 ± 0.2	10.74 ± 0.17	10.79 ± 0.15	10.81 ± 0.12
6890 kPa	7.78 ± 0.23	9.16 ± 0.2	10.05 ± 0.17	10.28 ± 0.15	10.56 ± 0.12
7240 kPa	7.22 ± 0.23	8.82 ± 0.2	9.74 ± 0.17	9.9 ± 0.15	10.19 ± 0.12
7580 kPa	6.26 ± 0.23	8.16 ± 0.2	9.44 ± 0.17	9.57 ± 0.15	9.82 ± 0.12
7930 kPa	5.48 ± 0.23	7.52 ± 0.2	8.98 ± 0.16	9.35 ± 0.15	9.52 ± 0.12
8270 kPa	4.79 ± 0.23	6.86 ± 0.2	8.35 ± 0.16	8.84 ± 0.15	9.23 ± 0.12
8620 kPa	4.24 ± 0.23	6.32 ± 0.19	7.67 ± 0.16	8.27 ± 0.15	8.84 ± 0.12
8960 kPa	3.49 ± 0.23	5.81 ± 0.19	7.42 ± 0.16	7.87 ± 0.14	8.58 ± 0.12
9310 kPa	2.7 ± 0.23	5.19 ± 0.19	6.95 ± 0.16	7.65 ± 0.14	8.16 ± 0.11
9650 kPa	–	4.57 ± 0.19	6.06 ± 0.16	7.15 ± 0.14	7.92 ± 0.11
10000 kPa	–	4 ± 0.19	5.78 ± 0.16	6.74 ± 0.14	7.61 ± 0.11
10340 kPa	–	3.45 ± 0.19	5.11 ± 0.16	6.41 ± 0.14	7.27 ± 0.11
10690 kPa	–	2.94 ± 0.19	4.84 ± 0.16	6.16 ± 0.14	6.99 ± 0.11
11030 kPa	–	2.38 ± 0.19	4.48 ± 0.15	5.64 ± 0.14	6.75 ± 0.11
11380 kPa	–	–	4.04 ± 0.15	5.28 ± 0.14	6.42 ± 0.11
